What is called Ki is the equilibrium dissociation constant of an inhibitor or competing ligand from its target. Read a high Ki as a looser hold on the target. Broadly, the AUC is concentration integrated over time.

Data set [1] deals with T1, C-X-C chemokine receptor type 2 (Homo sapiens, UniProt P25025).
T1 sequence (P25025 whole entry): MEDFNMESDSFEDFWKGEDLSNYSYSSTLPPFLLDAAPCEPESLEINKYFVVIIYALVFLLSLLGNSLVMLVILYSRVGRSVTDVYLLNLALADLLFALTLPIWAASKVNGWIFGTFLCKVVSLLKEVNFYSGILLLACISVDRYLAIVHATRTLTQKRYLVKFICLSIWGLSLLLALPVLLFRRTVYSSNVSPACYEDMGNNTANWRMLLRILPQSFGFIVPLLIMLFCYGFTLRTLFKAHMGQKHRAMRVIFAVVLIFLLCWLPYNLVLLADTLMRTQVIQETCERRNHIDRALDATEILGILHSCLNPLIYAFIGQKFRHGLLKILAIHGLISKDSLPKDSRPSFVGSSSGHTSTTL
Nature of the data set: Binding affinity to CXCR2.

Data set [2] addresses T2, C-X-C chemokine receptor type 1 (Homo sapiens, UniProt P25024).
T2 sequence (P25024 whole entry): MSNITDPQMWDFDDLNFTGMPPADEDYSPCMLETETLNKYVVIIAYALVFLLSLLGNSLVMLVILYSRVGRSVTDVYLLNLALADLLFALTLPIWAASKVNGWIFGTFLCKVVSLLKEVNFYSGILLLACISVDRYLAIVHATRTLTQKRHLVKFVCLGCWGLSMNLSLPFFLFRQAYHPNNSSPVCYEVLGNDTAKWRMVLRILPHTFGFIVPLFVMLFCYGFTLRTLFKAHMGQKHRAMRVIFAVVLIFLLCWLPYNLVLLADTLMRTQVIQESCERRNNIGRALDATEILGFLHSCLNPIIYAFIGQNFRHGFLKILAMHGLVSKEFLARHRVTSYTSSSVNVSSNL
Nature of the data set: Binding affinity to CXCR1.

Data set [3] in a line: AUC in po dosed rat. The format is ADME, organism-based. The note with it: plasma.

In the case of `CC[C@@H](Nc1c(Nc2cccc(C(=O)N(C)C)c2O)c(=O)c1=O)c1ccccc1`, the inhibition constant Ki in data set [1] was found to be 4 nM; in data set [2] it was 40 nM. The compound also registered an AUC in data set [3] of 17.4 µM·h.

Regarding `CN(C)C(=O)c1cccc(Nc2c(N[C@@H](c3ccccc3)C(F)(F)F)c(=O)c2=O)c1O`, the inhibitory constant (Ki) in data set [1] worked out at 14 nM; in data set [2], 40 nM.

Regarding `C[C@H](F)[C@@H](Nc1c(Nc2cccc(C(=O)N(C)C)c2O)c(=O)c1=O)c1ccco1`, the figures for the Ki in data set [1] and in data set [2] were 7 nM and 43 nM, respectively.

Consider `CN(C)C(=O)c1cccc(Nc2c(N[C@H](CC(F)(F)F)c3ccco3)c(=O)c2=O)c1O`, for which the inhibition constant Ki is 5 nM in data set [1] and 100 nM in data set [2].

As to `CN(C)C(=O)c1cccc(Nc2c(N[C@H](CCC(F)(F)F)c3ccco3)c(=O)c2=O)c1O`, in data set [1], the Ki was determined as 400 nM. That is a sub-micromolar value.

On to `CN(C)C(=O)c1cccc(Nc2c(N[C@@H](c3ccco3)C(F)(F)F)c(=O)c2=O)c1O`, for which the inhibition constant (Ki) is 2 nM in data set [1] and 6 nM in data set [2].

Consider `CN(C)C(=O)c1cccc(Nc2c(N[C@@H](c3ccc(Cl)o3)C(F)(F)F)c(=O)c2=O)c1O`, for which the inhibition constant Ki is 7 nM in data set [1] and 34 nM in data set [2].

As for `CN(C)C(=O)c1cccc(Nc2c(N[C@@H](c3cc(Cl)co3)C(F)(F)F)c(=O)c2=O)c1O`, the Ki in data set [1] is 5 nM; in data set [2], 20 nM.

In data set [1], `C=CC(F)(F)[C@@H](Nc1c(Nc2cccc(C(=O)N(C)C)c2O)c(=O)c1=O)c1ccc(C)o1` had a Ki of 9 nM.

For the compound `Cc1ccc([C@H](Nc2c(Nc3cccc(C(=O)N(C)C)c3O)c(=O)c2=O)C(C)(F)F)o1`, the Ki in data set [1] is 10 nM; in data set [2] it was 6 nM. In data set [3], this compound had an AUC of 3 µM·h.

Take `Cc1ccc([C@H](Nc2c(Nc3cccc(C(=O)N(C)C)c3O)c(=O)c2=O)C(C)(C)F)o1`: the Ki was 8 nM in data set [1] and 24 nM in data set [2].

As to `Cc1ccoc1[C@H](Nc1c(Nc2cccc(C(=O)N(C)C)c2O)c(=O)c1=O)C(C)(F)F`, the figures for the Ki in data set [1] and in data set [2] were 12 nM and 30 nM, respectively.

On to `Cc1ccc([C@H](Nc2c(Nc3cccc(C(=O)N(C)C)c3O)c(=O)c2=O)[C@H](C)F)o1`, for which the figures for the inhibition constant Ki in data set [1] and in data set [2] were 13 nM and 16 nM, respectively. In addition, in data set [3], the AUC is 3.6 µM·h.

Turning to `Cc1ccc([C@H](Nc2c(Nc3cccc(C(=O)N(C)C)c3O)c(=O)c2=O)C(F)(F)F)o1`, the inhibition constant Ki in data set [1] is 5 nM; in data set [2], 9 nM. The compound also had an AUC in data set [3] of 19.8 µM·h.

Regarding `Cc1coc([C@H](Nc2c(Nc3cccc(C(=O)N(C)C)c3O)c(=O)c2=O)[C@H](C)F)c1`, the Ki in data set [1] is 4 nM; in data set [2] it was 5 nM. This compound also had an AUC in data set [3] of 3.6 µM·h.

With `CN(C)C(=O)c1cccc(Nc2c(N[C@@H](c3ccc4c(c3)OCO4)C(F)(F)F)c(=O)c2=O)c1O`, the Ki in data set [1] was 5 nM; in data set [2] it was 8 nM. For the same compound, the AUC in data set [3] worked out at 9.17 µM·h.

For `CCC(F)(F)[C@@H](Nc1c(Nc2cccc(C(=O)N(C)C)c2O)c(=O)c1=O)c1ccc(C)o1`, the Ki came out at 5 nM in data set [1] and 22 nM in data set [2].

For the compound `Cc1ccc([C@H](Nc2c(Nc3cccc(C(=O)N(C)C)c3O)c(=O)c2=O)C(F)(F)C(F)(F)F)o1`, the results for the Ki in data set [1] and in data set [2] were 4 nM and 10 nM, respectively.

With `CC(C)c1coc([C@H](Nc2c(Nc3cccc(C(=O)N(C)C)c3O)c(=O)c2=O)C(C)(F)F)c1`, the inhibition constant Ki in data set [1] amounted to 2 nM; in data set [2], 25 nM.

As for `CN(C)C(=O)c1cccc(Nc2c(N[C@@H](c3cc(Cl)c(Cl)o3)C(F)(F)F)c(=O)c2=O)c1O`, the Ki in data set [1] was 5 nM; in data set [2] it was 103 nM.

Regarding `Cc1coc([C@H](Nc2c(Nc3cccc(C(=O)N(C)C)c3O)c(=O)c2=O)C(C)(F)F)c1`, the values for the Ki in data set [1] and in data set [2] were 14 nM and 6 nM, respectively.

Regarding `CC[C@@H](Nc1c(Nc2cccc(C(=O)N(C)C)c2O)c(=O)c1=O)c1ccc(C)o1` [NAVARIXIN ANHYDROUS], in data set [3], the area under the curve (AUC) was found to be 49 µM·h.

The values are drawn from ChEMBL document CHEMBL1153270, “Fluoroalkyl alpha side chain containing 3,4-diamino-cyclobutenediones as potent and orally bioavailable CXCR2-CXCR1 dual antagonists” (Bioorg Med Chem Lett, 2009).
